Among the data in DBAASP are MIC values, retold here.

Holding throughout (test): ≥ marks a high value that may be exact or a test limit, other limits are often not marked, values filed in µg/mL are converted to µM
The subject of assay [1] is Escherichia coli ATCC 25922.
The test system of assay [2] is Staphylococcus aureus NCTC 8325.
Assay [3] deals with Escherichia coli KCTC 1682.
The test system of assay [4] is Salmonella typhimurium KCTC 1926.
For assay [5], the system named is Pseudomonas aeruginosa KCTC 1637.
Assay [6] deals with Staphylococcus epidermidis KCTC 1917.
For assay [7], the system named is Staphylococcus aureus KCTC 1621.
Assay [8] has as its system Bacillus subtilis KCTC 3068.
In assay [9] the test system is Staphylococcus aureus USA 300.
Assay [10] relates to Pseudomonas aeruginosa PAO1.
Assay [11] relates to Klebsiella pneumoniae ATCC 13883.
Assay [12] has as its system Pseudomonas aeruginosa ATCC 27853.
For assay [13], the system named is Escherichia coli.
The test system of assay [14] is Pseudomonas aeruginosa.
For assay [15], the system named is Staphylococcus aureus.
Assay [16] relates to Acinetobacter baumannii.
Assay [17] concerns Klebsiella pneumoniae.
In assay [18] the test system is Staphylococcus aureus ATCC 25923.
In assay [19] the test system is Acinetobacter baumannii ATCC 19606.
The subject of assay [20] is Candida albicans ATCC 2002.
Assay [21] relates to Pseudomonas aeruginosa CMCCB 10104.
The subject of assay [22] is Salmonella enterica subsp. enterica serovar Typhimurium ATCC 14028.

SMILES strings stand for the structures. In brackets after ≈: the same amount, converted by molar mass. Several values for one entry are separate records, joined by “and”; a condition that tells them apart may be missing. Identical values can stand only once. Where only a bound is given, the exact number is not on record here.

On to `CSCC[C@H](NC(=O)[C@H](CC(C)C)NC(=O)[C@H](CO)NC(=O)CNC(=O)[C@H](C)NC(=O)[C@@H](NC(=O)[C@H](CC(N)=O)NC(=O)[C@H](CCCCN)NC(=O)[C@H](CC(C)C)NC(=O)[C@@H](NC(=O)[C@H](CC(N)=O)NC(=O)[C@H](CCCCN)NC(=O)CNC(=O)[C@@H](NC(=O)[C@H](CCCCN)NC(=O)[C@H](CCCCN)NC(=O)[C@H](Cc1ccccc1)NC(=O)[C@@H](NC(=O)[C@H](CC(N)=O)NC(=O)[C@H](Cc1ccccc1)NC(=O)[C@H](CC(C)C)NC(=O)CN)C(C)C)C(C)C)C(C)C)C(C)C)C(=O)N[C@@H](CC(=O)O)C(=O)N[C@@H](CC(N)=O)C(=O)N[C@@H](CC(C)C)C(=O)N[C@@H](CCCCN)C(=O)N[C@H]1CSSC[C@@H](C(=O)O)NC(=O)[C@H](CCC(=O)O)NC(=O)CNC(=O)[C@H](CO)NC(=O)[C@H](C(C)C)NC(=O)[C@H](CCCCN)NC1=O` [GLFNVFKKVGKNVLKNVAGSLMDNLKCKVSGEC], for which the MIC (commonly the lowest concentration that inhibits growth of the organism) is 3 µM (≈ 10.6 µg/mL) in assay [1] and ≥ 50 µM in [2].
Turning to `CC(C)C[C@H](NC(=O)[C@H](Cc1ccccc1)NC(=O)[C@H](CCCN=C(N)N)NC(=O)[C@H](CCCCN)NC(=O)[C@H](Cc1c[nH]c2ccccc12)NC(=O)[C@H](CCCN=C(N)N)NC(=O)[C@H](CCC(N)=O)NC(=O)[C@@H](NC(=O)[C@H](Cc1c[nH]c2ccccc12)NC(=O)[C@H](CCCN=C(N)N)NC(=O)[C@H](CCCCN)NC(=O)[C@@H](N)Cc1ccccc1)C(C)C)C(=O)N[C@@H](CCCN=C(N)N)C(N)=O` [FKRWVQRWKRFLR], the minimal inhibitory concentration (MIC) in [3] came to 4 µM (≈ 7.62 µg/mL); in [4], 2 µM (≈ 3.81 µg/mL); in [5], 16 µM (≈ 30.5 µg/mL); in [6], 4 µM (≈ 7.62 µg/mL); in assay [7], 2 µM (≈ 3.81 µg/mL); in assay [8] it was 2 µM (≈ 3.81 µg/mL).
Regarding `CC[C@H](C)[C@H](NC(=O)CNC(=O)[C@H](CCC(N)=O)NC(=O)[C@H](Cc1ccccc1)NC(=O)[C@@H](NC(=O)[C@H](CCCCN)NC(=O)[C@H](CCCCN)NC(=O)[C@H](Cc1ccccc1)NC(=O)[C@H](C)NC(=O)[C@H](CC(N)=O)NC(=O)[C@H](CC(C)C)NC(=O)CN)C(C)C)C(=O)N[C@@H](Cc1cnc[nH]1)C(=O)N[C@@H](CCC(=O)O)C(=O)N[C@@H](C)C(=O)N[C@H](C(=O)N[C@@H](CCCCN)C(=O)N[C@@H](CC(C)C)C(=O)N[C@H](C(=O)N[C@@H](CC(N)=O)C(=O)N[C@@H](CC(N)=O)C(=O)N[C@@H](Cc1cnc[nH]1)C(=O)N[C@H](C(=O)N[C@@H](CCC(N)=O)C(=O)O)C(C)C)[C@@H](C)CC)[C@@H](C)CC` [GLNAFKKVFQGIHEAIKLINNHVQ], the figures for the MIC in assay [1] and in [2] were 20 µM (≈ 54.4 µg/mL) and ≥ 160 µM, respectively.
For the molecule `CC(C)C[C@H](NC(=O)[C@H](CC(C)C)NC(=O)[C@H](CCCCN)NC(=O)CNC(=O)[C@H](CC(C)C)NC(=O)[C@H](C)NC(=O)[C@H](CO)NC(=O)[C@H](CC(C)C)NC(=O)[C@H](CC(C)C)NC(=O)[C@H](CO)NC(=O)[C@H](CC(C)C)NC(=O)[C@H](CC(C)C)NC(=O)CN)C(N)=O` [GLLSLLSALGKLL], the MIC was 1.56 µM (≈ 2.02 µg/mL) in assay [9], > 25 µM in assay [1], > 25 µM in assay [10] and 25 µM (≈ 32.4 µg/mL) in assay [11].
As for `CC[C@H](C)[C@H](NC(=O)[C@H](CCCCN)NC(=O)[C@H](CC(C)C)NC(=O)[C@H](C)NC(=O)[C@H](CCCCN)NC(=O)[C@H](CC(C)C)NC(=O)[C@H](C)NC(=O)CNC(=O)[C@H](CCCCN)NC(=O)[C@H](C)NC(=O)[C@@H](NC(=O)[C@@H](N)CCCCN)[C@@H](C)CC)C(=O)N[C@@H](C)C(=O)N[C@@H](CCCCN)C(=O)N[C@H](C(=O)N[C@@H](C)C(=O)N[C@@H](CC(C)C)C(=O)N[C@@H](CCCCN)C(=O)N[C@@H](C)C(=O)N[C@@H](CC(C)C)C(N)=O)C(C)C` [KIAKGALKALKIAKVALKAL], the MIC is 2 µM (≈ 4.1 µg/mL) in assay [12]; 4 µM (≈ 8.19 µg/mL) in assay [13]; 2.83 µM (≈ 5.79 µg/mL) in assay [14]; 5.66 µM (≈ 11.6 µg/mL) in assay [15]; 0.354 µM (≈ 0.724 µg/mL) in assay [1]; 0.5 µM (≈ 1.02 µg/mL) in assay [16]. For the same molecule, the MIC in [17] amounted to 4 µM (≈ 8.19 µg/mL); in assay [18], 11.3 µM (≈ 23.2 µg/mL); in [11] it was 2 µM (≈ 4.1 µg/mL); in assay [19] it was 0.707 µM (≈ 1.45 µg/mL).
Turning to `CC[C@H](C)[C@H](NC(=O)CNC(=O)[C@H](CCCCN)NC(=O)[C@H](Cc1ccccc1)NC(=O)[C@@H](NC(=O)[C@H](CCCCN)NC(=O)[C@H](CCCCN)NC(=O)[C@H](CC(C)C)NC(=O)[C@H](C)NC(=O)[C@H](CCCCN)NC(=O)[C@H](CC(C)C)NC(=O)CN)C(C)C)C(=O)N[C@@H](Cc1cnc[nH]1)C(=O)N[C@@H](CCCCN)C(=O)N[C@@H](C)C(=O)N[C@H](C(=O)N[C@@H](CCCCN)C(=O)N[C@@H](CC(C)C)C(=O)N[C@H](C(=O)N[C@@H](CC(N)=O)C(=O)N[C@@H](CCCCN)C(=O)N[C@@H](Cc1cnc[nH]1)C(=O)N[C@H](C(=O)N[C@@H](CCCCN)C(=O)O)C(C)C)[C@@H](C)CC)[C@@H](C)CC` [GLKALKKVFKGIHKAIKLINKHVK], the results for the MIC in assay [1] and in assay [2] were 5 µM (≈ 13.6 µg/mL) and 20 µM (≈ 54.2 µg/mL), respectively.
`CC[C@H](C)[C@H](NC(=O)[C@H](CC(C)C)NC(=O)[C@H](CC(C)C)NC(=O)[C@H](CC(=O)O)NC(=O)[C@H](CCCCN)NC(=O)[C@@H](NC(=O)[C@@H](NC(=O)CNC(=O)[C@H](CC(C)C)NC(=O)[C@@H](NC(=O)CN)C(C)C)[C@@H](C)O)C(C)C)C(=O)NCC(=O)N[C@@H](C)C(=O)NCC(=O)N[C@@H](CCCCN)C(=O)N[C@@H](CO)C(=O)N[C@@H](C)C(=O)N[C@@H](C)C(=O)N[C@@H](CCC(N)=O)C(=O)N[C@@H](CO)C(=O)N[C@H](C(=O)N[C@@H](CC(C)C)C(=O)N[C@@H](CCCCN)C(=O)N[C@H](C(=O)N[C@@H](CC(C)C)C(=O)N[C@@H](CO)C(=O)N[C@H]1CSSC[C@@H](C(=O)O)NC(=O)[C@H](CC(=O)O)NC(=O)[C@H](CC(N)=O)NC(=O)[C@H](CO)NC(=O)[C@H]([C@@H](C)CC)NC(=O)[C@H](CCCCN)NC1=O)[C@@H](C)O)[C@@H](C)O` [GVLGTVKDLLIGAGKSAAQSTLKTLSCKISNDC]: the MIC turned out to be 1.76 µM (≈ 5.8 µg/mL) in assay [20], 1.76 µM (≈ 5.8 µg/mL) in assay [1], 3.52 µM (≈ 11.6 µg/mL) in [18] and 7.05 µM (≈ 23.2 µg/mL) in assay [21].
Consider `CC[C@H](C)[C@H](NC(=O)[C@H](Cc1ccccc1)NC(=O)[C@H](CCCN=C(N)N)NC(=O)[C@@H](NC(=O)[C@@H]1CCCN1C(=O)[C@H](CO)NC(=O)[C@H](CC(C)C)NC(=O)[C@H](C)NC(=O)[C@H](C)NC(=O)[C@H](CCCCN)NC(=O)[C@H](CC(N)=O)NC(=O)[C@H](CCSC)NC(=O)CNC(=O)[C@@H](NC(=O)[C@H](CCC(N)=O)NC(=O)[C@H](CC(=O)O)NC(=O)[C@H](C)NC(=O)[C@@H](N)CO)[C@@H](C)O)[C@@H](C)CC)C(=O)N[C@@H](CO)C(=O)N[C@@H](CCCCN)C(=O)N[C@@H](CO)C(=O)N[C@H](C(=O)O)C(C)C` [SADQTGMNKAALSPIRFISKSV], for which the MIC in assay [20] is ≥ 86.1 µM; in assay [1] it was > 86.1 µM; in [18] it was > 86.1 µM; in [21] it was ≥ 86.1 µM.
Consider `CC(C)C[C@H](NC(=O)[C@H](CCCN=C(N)N)NC(=O)[C@H](CCCN=C(N)N)NC(=O)[C@H](C)NC(=O)[C@H](Cc1c[nH]c2ccccc12)NC(=O)CNC(=O)[C@H](CCCN=C(N)N)NC(=O)[C@@H](N)CCCN=C(N)N)C(=O)N[C@@H](C)C(=O)N[C@@H](C)C(=O)N[C@@H](C)C(=O)N[C@@H](Cc1ccc(O)cc1)C(=O)NCC(=O)N[C@@H](CCCN=C(N)N)C(=O)N[C@@H](CCCN=C(N)N)C(N)=O` [RRGWARRLAAAYGRR], for which the MIC in [22] is > 30 µM; in assay [1], 18.1 µM and 30 µM; in assay [18], > 30 µM; in [11], 30 µM (≈ 54.5 µg/mL); in assay [19], 25.4 µM and 30 µM.
As to `CC(C)C[C@H](NC(=O)[C@H](CC(C)C)NC(=O)[C@H](CCCCN)NC(=O)[C@H](CCCCN)NC(=O)[C@H](Cc1c[nH]c2ccccc12)NC(=O)[C@H](CC(C)C)NC(=O)[C@H](CCCCN)NC(=O)[C@H](CCCCN)NC(=O)[C@H](CC(C)C)NC(=O)[C@@H](N)CCCCN)C(=O)N[C@@H](CCCCN)C(N)=O` [KLKKLWKKLLK], in assay [8], the MIC is 8.77 µM and 17.5 µM.
